The text below walks through data of ChEMBL document CHEMBL1129111, “Neuroprotective (+) 3S, 4S cannabinoids with modified 5-side chain” (Bioorg Med Chem Lett, 1996).

What is called IC50 is the point on the concentration scale where inhibition reaches its midpoint. A high value points to a need for much substance. In general, inhibition refers to the relative decrease from the control value, in per cent. A lower inhibition goes with a response near the control.

The target of one test is Glutamate NMDA receptor. The test is described as follows: Compound was tested for its ability to displace [3H]- MK-801 binding to NMDA receptor in rat forebrain membranes. The test is classed as cell membranes.
The target in test [1] is Glutamate NMDA receptor (Rattus norvegicus) (UniProt P35439+Q00959+Q00960+Q00961+Q62645+Q8VHN2+Q9R1M7). Nature of the test: Compound was tested for its ability to inhibit [3H]- MK-801 binding to NMDA receptor in rat forebrain membranes at concentration of 100 uM. The test is classed as cell membranes. To be noted: Membrane.
Test [2] is filed under the species Rattus norvegicus. The test is described as follows: Compound was tested for the protection of neurons against NMDA toxicity at concentration of 10 uM. The test is classed as functional.
The species named for test [3] is Rattus norvegicus. The test is described as follows: Compound was tested for neuronal cell toxicity in cortical neuron cell cultures extracted from fetal rat brains at concentration of 10 uM. The test is classed as functional, Brain.
For test [4], the species on record is Rattus norvegicus. The test is described as follows: Compound was tested for neuronal cell toxicity in cortical neuron cell cultures extracted from fetal rat brains at concentration of 20 uM. Type of test: functional, Brain.

The structures appear in SMILES notation.

Compound `CCCCCCC(C)(C)c1cc(O)c2c(c1)OC(C)(C)C1CC=C(CO)C[C@H]21` (some centres undefined) registered an IC50 on Glutamate NMDA receptor of 10 µM. Besides, in test [1], the inhibition came out at 90%. In the test listed under Rattus norvegicus [2], this compound came in with a Protection of 63%. Besides, the Morbidity in the test listed under Rattus norvegicus [3] is recorded as 25%.
As for `CCCC(C)(C)c1cc(O)c2c(c1)OC(C)(C)C1CC=C(CO)C[C@H]21` (some centres undefined), the half-inhibitory concentration (IC50) on Glutamate NMDA receptor came to 30 µM. For the same compound, the Morbidity in the test listed under Rattus norvegicus [4] and in the test filed under Rattus norvegicus [3] was 0% in each case. The compound also registered an inhibition in test [1] of 80%. Besides, the Protection in the test listed under Rattus norvegicus [2] came to 36%.
For the compound `CC(C)(C)c1cc(O)c2c(c1)OC(C)(C)C1CC=C(CO)C[C@H]21` (some centres undefined), on Glutamate NMDA receptor, the IC50 is 30 µM. In addition, the results for the Morbidity in the test filed under Rattus norvegicus [4] and in the test filed under Rattus norvegicus [3] were 36% and 15%, respectively. The compound also yielded an inhibition in test [1] of 83%. The same compound yielded a Protection in the test filed under Rattus norvegicus [2] of 24%.
